# Experiments:
# Format in all cases: cell-based, mouse
# [1] = tested on: 66cl4 cells; experiment: Binding of FITC-tagged CAIX inhibitor to cells (epifluorescence), 66cl4 cells; details: hypoxia 72 hours, 10 μM
# Procedure: (§1) CAI 17 was a generous gift from Dr. Claudiu Supuran (University of Florence, Florence, Italy). The chemical properties of this sulfonamide have been previously described^20,34. The sulfonamide was dissolved in 100% DMSO, stored at −80° C. and diluted into culture medium just prior to application. Subconfluent cell monolayers were incubated with CAI 17 for 72 hours in normoxia or hypoxia, washed 3× in PBS and imaged using a Ziess Axioplan epifluorescence microscope.
# (§2) FIG. 4, part d, depicts localization of the fluorescent CAIX inhibitor, CAI 17, on cells. To determine whether the acidification was CAIX-dependent, cells were treated with a highly specific CAIX inhibitor (compound 17 or “CAI 17”)^20. Cells were incubated in normoxia or hypoxia for 72 hours in the presence of CAI 17 at a concentration of 10 μM. Shown are representative images of the FITC-tagged inhibitor bound to the cells under the indicated experimental conditions. Data were similar in 3 independent experiments.
# [2] = tested on: 67NR cells; experiment: Binding of FITC-tagged CAIX inhibitor to cells (epifluorescence), 67NR cells; details: hypoxia 72 hours, 10 μM
# Procedure: as §1, §2
# [3] = tested on: 4T1 cells; experiment: Binding of FITC-tagged CAIX inhibitor to cells (epifluorescence), 4T1 cells; details: hypoxia 72 hours, 10 μM
# Procedure: as §1, §2
# [4] = tested on: 66cl4 cells; experiment: Measurement of extracellular pH of culture medium, 66cl4 cells; details: hypoxia 72 hours, CAI 17 600 μM
# Procedure: (§3) The acquisition, generation and culture of the mouse breast cancer cell lines 4T1, 66cl4 and 67NR have been described previously^11. These 3 cell lines stably express a luciferase reporter^11 and were cultured routinely in DMEM supplemented with 10% FBS, non-essential amino acids and […] puromycin. Incubation in normoxia was carried out in a humidified atmosphere of 5% CO2 and 95% air at 37° C. Cells were maintained in conditions of hypoxia (1% O2 and 5% CO2 balanced with N2) at 37° C. in a humidified incubator positioned in a sealed anaerobic workstation.
# (§4) Cells were plated in 60 mm dishes and allowed to recover for 24 hours. Growth medium was then replaced with a standard 3 ml volume of fresh media and cells were incubated in normoxia or hypoxia for 72 hours. Spent media was collected in 15 ml conical tubes, maintained at 37° C. and pH was measured immediately using a digital pH meter. Triplicate plates were run for each condition and results were averaged. Cell layers were kept on ice and were harvested for qRT-PCR and Western blot analysis.
# CAI 17 was a generous gift from Dr. Claudiu Supuran (University of Florence, Florence, Italy). The chemical properties of this sulfonamide have been previously described^20,34. […]
# (§5) Data are expressed as the mean change in extracellular pH±s.e.m. of triplicate samples and are representative of 3 independent experiments. […]
# [5] = tested on: 4T1 cells; experiment: Measurement of extracellular pH of culture medium, 4T1 cells; details: hypoxia 72 hours, CAI 17 400 μM
# Procedure: as §3
# as §4, with “analysis. […]” for “analysis.”
# as §5
# Data are expressed as the mean change in extracellular pH±s.e.m. and are representative of 2 independent experiments (each n=3).
compound,measurement,setting,value
NS(=O)(=O)c1ccc(CCNC(=S)Nc2ccc(-c3c4ccc(=O)cc-4oc4cc(O)ccc34)c(C(=O)O)c2)cc1 [CAI 17],binding of FITC-tagged inhibitor to cell surfaces,[1],binds to the cell surfaces
same,binding of FITC-tagged inhibitor to cell surfaces,[2],not
same,binding of FITC-tagged inhibitor to cell surfaces,[3],binds to the cell surfaces
same,acidification of the extracellular medium under hypoxia,[4],reversed acidification of the extracellular medium
same,acidification of the extracellular medium under hypoxia,[5],reversed acidification of the extracellular medium
